According to ChEMBL document CHEMBL4118122, “Identification and biological evaluation of thiazole-based inverse agonists of RORγt” (Bioorg Med Chem Lett, 2018):
In brackets after ≈: the same amount, converted by molar mass.

Columns and labels:
PXR (NR1I2) [1] = target: T1, PXR (NR1I2) (Homo sapiens, UniProt O75469); assay: […] at PXR LBD (unknown origin) expressed in HEK293 cells […] at 1 uM after 16 hrs by luciferase reporter gene assay relative to rifampicin; type: ADME, cell-based; settings: HEK293 cells expressing PXR LBD, read-out: Efficacy
T1 sequence (O75469 whole entry): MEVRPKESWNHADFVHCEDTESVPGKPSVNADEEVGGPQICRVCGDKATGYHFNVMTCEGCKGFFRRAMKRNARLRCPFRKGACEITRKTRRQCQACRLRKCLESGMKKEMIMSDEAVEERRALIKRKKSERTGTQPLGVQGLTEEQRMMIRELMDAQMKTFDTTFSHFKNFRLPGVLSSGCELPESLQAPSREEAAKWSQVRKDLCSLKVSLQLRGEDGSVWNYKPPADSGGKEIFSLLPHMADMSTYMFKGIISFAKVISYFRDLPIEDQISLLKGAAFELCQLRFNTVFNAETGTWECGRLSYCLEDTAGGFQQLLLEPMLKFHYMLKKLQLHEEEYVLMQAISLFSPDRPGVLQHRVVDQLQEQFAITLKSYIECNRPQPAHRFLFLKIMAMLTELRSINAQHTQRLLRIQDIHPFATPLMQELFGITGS

PXR (NR1I2) [2] = target: T1, PXR (NR1I2); assay: […] at PXR LBD (unknown origin) expressed in HEK293 cells […] at 5 uM after 16 hrs by luciferase reporter gene assay relative to rifampicin; type: ADME, cell-based; settings: HEK293 cells expressing PXR LBD, read-out: Efficacy
PXR (NR1I2) [3] = target: T1, PXR (NR1I2); assay: […] at PXR LBD (unknown origin) expressed in HEK293 cells […] at 10 uM after 16 hrs by luciferase reporter gene assay relative to rifampicin; type: ADME, cell-based; settings: HEK293 cells expressing PXR LBD, read-out: Efficacy
[4] = Thermodynamic solubility of the compound in 30 mM phosphate buffer at 10 mM at pH 7 after 2 to 5 days by UV-HPLC analysis; type: physicochemical; settings: read-out: Therm_solubility
[5] = Half life in rat microsomes; type: ADME, Microsome
[6] = Half life in human microsomes; type: ADME, Microsome
Cytochrome P450 1A2 = target: T2, Cytochrome P450 1A2 (Homo sapiens, UniProt P05177); assay: Inhibition of CYP1A2 (unknown origin); type: ADME
T2 sequence (P05177 whole entry): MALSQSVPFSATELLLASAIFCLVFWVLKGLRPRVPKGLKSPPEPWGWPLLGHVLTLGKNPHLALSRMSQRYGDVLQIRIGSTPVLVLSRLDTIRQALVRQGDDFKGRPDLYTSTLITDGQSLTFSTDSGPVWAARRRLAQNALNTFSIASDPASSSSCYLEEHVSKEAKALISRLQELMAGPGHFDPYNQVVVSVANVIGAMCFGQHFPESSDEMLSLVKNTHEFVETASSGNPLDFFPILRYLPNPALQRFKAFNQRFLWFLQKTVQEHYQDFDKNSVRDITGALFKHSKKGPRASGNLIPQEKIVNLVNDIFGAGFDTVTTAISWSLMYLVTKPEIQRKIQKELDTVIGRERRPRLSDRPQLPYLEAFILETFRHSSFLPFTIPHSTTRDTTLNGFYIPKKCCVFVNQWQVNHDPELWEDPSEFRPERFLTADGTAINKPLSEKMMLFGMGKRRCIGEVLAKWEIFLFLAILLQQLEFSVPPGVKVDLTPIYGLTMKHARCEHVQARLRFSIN

Cytochrome P450 2C19 = Cytochrome P450 2C19 (Homo sapiens, UniProt P33261); assay: Inhibition of CYP2C19 (unknown origin); type: ADME
Cytochrome P450 2C19, sequence (P33261 whole entry): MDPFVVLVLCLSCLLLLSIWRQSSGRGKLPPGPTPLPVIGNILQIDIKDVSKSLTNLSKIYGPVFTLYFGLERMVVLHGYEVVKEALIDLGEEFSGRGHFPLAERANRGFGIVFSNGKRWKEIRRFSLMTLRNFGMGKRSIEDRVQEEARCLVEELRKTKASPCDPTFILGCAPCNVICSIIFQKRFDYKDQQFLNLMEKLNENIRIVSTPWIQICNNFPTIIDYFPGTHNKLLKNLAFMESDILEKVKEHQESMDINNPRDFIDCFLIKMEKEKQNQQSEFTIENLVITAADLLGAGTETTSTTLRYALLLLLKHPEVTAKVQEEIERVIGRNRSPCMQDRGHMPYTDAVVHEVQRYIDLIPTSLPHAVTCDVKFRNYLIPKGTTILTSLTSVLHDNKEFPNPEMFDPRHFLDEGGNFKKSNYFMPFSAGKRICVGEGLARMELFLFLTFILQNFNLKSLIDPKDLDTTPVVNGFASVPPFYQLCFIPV

Cytochrome P450 2C8 = target: T3, Cytochrome P450 2C8 (Homo sapiens, UniProt P10632); assay: Inhibition of CYP2C8 (unknown origin); type: ADME
T3 sequence (P10632 whole entry): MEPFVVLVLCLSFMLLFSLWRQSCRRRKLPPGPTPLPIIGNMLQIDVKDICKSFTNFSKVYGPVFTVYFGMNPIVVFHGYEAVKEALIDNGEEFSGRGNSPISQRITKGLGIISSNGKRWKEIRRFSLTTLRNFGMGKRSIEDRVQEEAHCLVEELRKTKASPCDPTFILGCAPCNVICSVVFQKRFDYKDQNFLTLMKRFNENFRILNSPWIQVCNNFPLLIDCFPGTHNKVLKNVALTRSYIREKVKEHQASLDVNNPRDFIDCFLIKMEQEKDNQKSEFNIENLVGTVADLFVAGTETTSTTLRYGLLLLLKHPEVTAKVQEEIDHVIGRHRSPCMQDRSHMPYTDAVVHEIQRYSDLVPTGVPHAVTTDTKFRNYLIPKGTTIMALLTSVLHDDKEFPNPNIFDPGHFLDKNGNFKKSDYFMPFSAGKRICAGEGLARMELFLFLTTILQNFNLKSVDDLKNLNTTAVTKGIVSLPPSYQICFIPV

Cytochrome P450 2C9 = Cytochrome P450 2C9 (Homo sapiens, UniProt P11712); assay: Inhibition of CYP2C9 (unknown origin); type: ADME
Cytochrome P450 2C9, sequence (P11712 whole entry): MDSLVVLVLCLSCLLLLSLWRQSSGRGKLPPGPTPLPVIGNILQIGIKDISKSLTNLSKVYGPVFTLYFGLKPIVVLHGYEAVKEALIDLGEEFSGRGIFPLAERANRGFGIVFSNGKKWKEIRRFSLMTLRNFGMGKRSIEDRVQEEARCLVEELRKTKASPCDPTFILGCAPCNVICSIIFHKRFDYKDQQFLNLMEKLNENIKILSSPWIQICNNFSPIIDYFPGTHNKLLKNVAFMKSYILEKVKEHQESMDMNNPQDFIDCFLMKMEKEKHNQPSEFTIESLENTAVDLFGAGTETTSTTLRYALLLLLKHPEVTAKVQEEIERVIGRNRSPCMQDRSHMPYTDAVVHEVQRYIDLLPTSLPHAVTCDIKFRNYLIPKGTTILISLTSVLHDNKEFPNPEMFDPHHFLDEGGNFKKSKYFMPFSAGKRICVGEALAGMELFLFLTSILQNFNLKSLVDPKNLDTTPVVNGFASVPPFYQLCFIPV

Cytochrome P450 2D6 = Cytochrome P450 2D6 (Homo sapiens, UniProt P10635); assay: Inhibition of CYP2D6 (unknown origin); type: ADME
Cytochrome P450 2D6, sequence (P10635 whole entry): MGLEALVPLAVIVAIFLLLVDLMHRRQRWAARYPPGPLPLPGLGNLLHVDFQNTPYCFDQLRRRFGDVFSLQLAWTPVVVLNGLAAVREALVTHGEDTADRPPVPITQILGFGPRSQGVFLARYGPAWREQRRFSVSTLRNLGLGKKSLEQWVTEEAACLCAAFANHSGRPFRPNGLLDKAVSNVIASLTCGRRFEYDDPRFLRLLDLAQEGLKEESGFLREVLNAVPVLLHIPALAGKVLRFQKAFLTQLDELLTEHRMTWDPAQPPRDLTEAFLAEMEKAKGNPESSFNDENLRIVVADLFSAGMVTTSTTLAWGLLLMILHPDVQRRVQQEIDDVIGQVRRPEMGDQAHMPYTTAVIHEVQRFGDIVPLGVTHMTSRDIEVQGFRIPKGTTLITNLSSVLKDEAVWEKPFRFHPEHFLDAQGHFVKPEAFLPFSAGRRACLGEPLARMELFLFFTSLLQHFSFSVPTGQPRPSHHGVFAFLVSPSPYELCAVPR

Cytochrome P450 3A4 = Cytochrome P450 3A4 (Homo sapiens, UniProt P08684); assay: Inhibition of CYP3A4 (unknown origin); type: ADME
Cytochrome P450 3A4, sequence (P08684 whole entry): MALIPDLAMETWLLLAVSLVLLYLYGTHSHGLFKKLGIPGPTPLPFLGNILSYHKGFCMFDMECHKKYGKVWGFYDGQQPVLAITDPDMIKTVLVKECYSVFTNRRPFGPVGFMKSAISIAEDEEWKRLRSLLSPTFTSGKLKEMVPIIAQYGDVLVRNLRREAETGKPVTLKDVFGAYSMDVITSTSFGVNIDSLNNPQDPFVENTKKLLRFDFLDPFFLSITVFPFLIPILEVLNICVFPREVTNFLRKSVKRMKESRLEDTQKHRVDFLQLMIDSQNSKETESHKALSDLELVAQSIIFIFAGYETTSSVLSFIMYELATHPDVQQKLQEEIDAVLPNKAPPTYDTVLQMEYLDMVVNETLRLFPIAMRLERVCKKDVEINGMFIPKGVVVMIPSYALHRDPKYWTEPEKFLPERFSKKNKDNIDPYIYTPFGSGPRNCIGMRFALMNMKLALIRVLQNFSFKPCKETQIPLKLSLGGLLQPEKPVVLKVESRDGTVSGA

Row | SMILES | Emax at 16 h, 1 µM (PXR (NR1I2) [1]) | Emax at 16 h, 5 µM (PXR (NR1I2) [2]) | Emax at 16 h, 10 µM (PXR (NR1I2) [3]) | further results
1 | CC(C)(C)NS(=O)(=O)c1ccc(-c2sc(C(=O)NCC(C)(C)C(N)=O)nc2CC2CCCCC2)c2ccccc12 | 110% | 142% | – | –
2 | C[C@H](NS(=O)(=O)c1ccc(-c2sc(C(=O)NCC(C)(C)O)nc2CC2CC(F)(F)C2)c2ccccc12)C(F)(F)F | 71% | 80% | – | –
3 | C[C@H](NS(=O)(=O)c1ccc(-c2sc(C(=O)N[C@H]3C[C@H](C(=O)O)C3)nc2CC2CCC2)c2ccccc12)C(F)(F)F | 40% | 118% | – | –
4 | CCS(=O)(=O)c1ccc(CNC(=O)c2nc(CC3CCCCC3)c(-c3ccc(S(=O)(=O)NC(C)(C)C)c4ccccc34)s2)cc1 | 26% | – | 94% | –
5 | CC(C)(O)CNC(=O)c1nc(CC2CCCCC2)c(-c2ccc(S(=O)(=O)NC3(C#N)CC3)c3ccccc23)s1 | 155% | – | 167% | solubility thermodynamic at 10000 µM [4]: 10 µM (≈ 5.67 µg/mL); half-life [5]: 15 min; half-life [6]: 27 min; INH (Cytochrome P450 1A2): > 10 µM; INH (Cytochrome P450 2C19): 6.3 µM; INH (Cytochrome P450 2C8): 7.3 µM; INH (Cytochrome P450 2C9): 0.7 µM; INH (Cytochrome P450 2D6): > 10 µM; INH (Cytochrome P450 3A4): 0.9 µM
6 | CC(C)(C)NS(=O)(=O)c1ccc(-c2sc(C(=O)NC34CC(C(=O)O)(C3)C4)nc2CC2CCCCC2)c2ccccc12 | 69% | – | 116% | –
7 | C[C@H](NS(=O)(=O)c1ccc(-c2sc(C(=O)NCC(C)(C)O)nc2COC(C)(C)C)c(Cl)c1Cl)C(F)(F)F | 61% | 117% | – | solubility thermodynamic at 10000 µM [4]: 12 µM (≈ 7.28 µg/mL); half-life [5]: > 180 min; half-life [6]: > 180 min; INH (Cytochrome P450 2C19): 6.5 µM; INH (Cytochrome P450 2C8): > 10 µM; INH (Cytochrome P450 2C9): 1.7 µM; INH (Cytochrome P450 2D6): > 10 µM; INH (Cytochrome P450 3A4): > 10 µM
8 | CC(C)(C)NS(=O)(=O)c1ccc(-c2sc(C(=O)N3CC4(CCS(=O)(=O)CC4)C3)nc2CC2CCCCC2)c2ccccc12 | 116% | – | 128% | –
9 | CC(C)(CCO)NS(=O)(=O)c1ccc(-c2sc(C(=O)N[C@H]3C[C@H](C(=O)O)C3)nc2CC2CCCCC2)c2ccccc12 | 15% | 53% | – | –
10 | C[C@H](NS(=O)(=O)c1cc(-c2sc(C(=O)N[C@H]3C[C@H](C(=O)O)C3)nc2CC2CCCCC2)cc(C(C)(C)C)c1)C(F)(F)F | 157% | 159% | – | –
11 | CC[C@H](NC(=O)c1cc(-c2sc(C(=O)N[C@H]3C[C@H](C(=O)O)C3)nc2CC2CCCCC2)cc(C2(C)CC2)c1)C(F)(F)F | 32% | 71% | – | –
12 | CC(C)(O)CNC(=O)c1nc(CC2CCCCC2)c(-c2ccc(S(=O)(=O)NC(C)(C)C)c3ccccc23)s1 | 138% | 116% | – | –
13 | CC(C)(CCF)NS(=O)(=O)c1ccc(-c2sc(C(=O)N[C@H]3C[C@H](C(=O)O)C3)nc2CC2CCCCC2)c2ccccc12 | 91% | 117% | – | –
14 | C[C@H](NC(=O)c1cc(-c2sc(C(=O)N[C@H]3C[C@H](C(=O)O)C3)nc2CC2CCCCC2)cc(C(C)(C)C)c1)C(F)(F)F | 29% | 59% | – | –
15 | C[C@H](NS(=O)(=O)c1ccc(-c2sc(C(=O)N3CC4(C3)CS(=O)(=O)C4)nc2CC2CCC2)c(Cl)c1Cl)C(F)(F)F | 56% | 106% | – | –
16 | CC(C)(C)NS(=O)(=O)c1ccc(-c2sc(C(=O)N[C@H]3C[C@H](C(=O)O)C3)nc2CC2CCCCC2)c(Cl)c1Cl | 16% | – | 23% | –
17 | CC(C)(C)c1cc(-c2sc(C(=O)N[C@H]3C[C@H](C(=O)O)C3)nc2CC2CCCCC2)cc(C(O)(C(F)(F)F)C(F)(F)F)c1 | 41% | 89% | – | –
18 | CC(C)(O)CNC(=O)c1nc(CC2CCCCC2)c(-c2cnc(S(=O)(=O)NC(C)(C)C)c3ccccc23)s1 | – | – | – | solubility thermodynamic at 10000 µM [4]: < 4 µM; half-life [5]: 5.2 min; half-life [6]: 23 min; INH (Cytochrome P450 1A2): > 10 µM; INH (Cytochrome P450 2C19): 7.6 µM; INH (Cytochrome P450 2C8): > 10 µM; INH (Cytochrome P450 2C9): 1.1 µM; INH (Cytochrome P450 2D6): > 10 µM; INH (Cytochrome P450 3A4): > 10 µM
19 | C[C@H](NC(=O)c1cc(-c2sc(C(=O)N[C@H]3C[C@H](C(=O)O)C3)nc2CC2CCCCC2)cc(C2(C#N)CC2)c1)C(F)(F)F | 3.1% | 7.5% | – | –
20 | CC(C)(O)CNC(=O)c1nc(CC2CCCCC2)c(-c2ccc(S(=O)(=O)NC(C)(C)C)c(Cl)c2C(F)F)s1 | – | – | – | half-life [5]: 14 min; half-life [6]: 18 min; INH (Cytochrome P450 1A2): > 10 µM; INH (Cytochrome P450 2C19): 5.6 µM; INH (Cytochrome P450 2C8): 4.6 µM; INH (Cytochrome P450 2C9): 0.4 µM; INH (Cytochrome P450 2D6): > 10 µM; INH (Cytochrome P450 3A4): 6.9 µM
21 | CC(C)(C)NS(=O)(=O)c1ccc(-c2sc(C(=O)NC3CCOCC3)nc2CC2CCCCC2)c2ccccc12 | 181% | – | 206% | –
22 | CC(C)(C)NS(=O)(=O)c1ccc(-c2sc(C(=O)NCC3CS(=O)(=O)C3)nc2CC2CCCCC2)c2ccccc12 | 140% | 147% | – | –
23 | CCC(C)(C)NS(=O)(=O)c1ccc(-c2sc(C(=O)N[C@H]3C[C@H](C(=O)O)C3)nc2CC2CCCCC2)c2ccccc12 | 116% | 158% | – | –
24 | CC(C)(C)NC(=O)c1cc(-c2sc(C(=O)N[C@H]3C[C@H](C(=O)O)C3)nc2CC2CCCCC2)cc(C2(C)CC2)c1 | 11% | – | 53% | –
25 | CC(C)(C)NS(=O)(=O)c1ccc(-c2sc(C(=O)N[C@H]3C[C@H](C(=O)O)C3)nc2CC2CCCCC2)c2c1CCCC2 | 10% | – | 20% | solubility thermodynamic at 10000 µM [4]: < 1 µM; half-life [5]: 22 min; half-life [6]: 16 min; INH (Cytochrome P450 1A2): > 10 µM; INH (Cytochrome P450 2C19): > 10 µM; INH (Cytochrome P450 2C8): 4.2 µM; INH (Cytochrome P450 2C9): > 10 µM; INH (Cytochrome P450 2D6): > 10 µM; INH (Cytochrome P450 3A4): > 10 µM
26 | CC(C)(C)NS(=O)(=O)c1ccc(-c2sc(C(=O)NC3CCS(=O)(=O)CC3)nc2C(C)(C)C)c2ccccc12 | 66% | 112% | – | –
27 | CC(C)(C)NS(=O)(=O)c1ccc(-c2sc(C(=O)NC3CS(=O)(=O)C3)nc2CC2CCCCC2)c2ccccc12 | 181% | – | 187% | –
28 | C[C@H](NC(=O)c1cc(-c2sc(C(=O)N[C@H]3C[C@H](C(=O)O)C3)nc2CC2CCCCC2)cc(C2(C)CC2)c1)C(F)(F)F | 26% | – | 94% | solubility thermodynamic at 10000 µM [4]: 17 µM (≈ 10.1 µg/mL); half-life [5]: 150 min; half-life [6]: > 180 min; INH (Cytochrome P450 1A2): > 10 µM; INH (Cytochrome P450 2C19): > 10 µM; INH (Cytochrome P450 2C8): > 10 µM; INH (Cytochrome P450 2C9): > 10 µM; INH (Cytochrome P450 2D6): > 10 µM; INH (Cytochrome P450 3A4): > 10 µM
29 | C[C@H](NS(=O)(=O)c1ccc(-c2sc(C(=O)NCC(C)(C)O)nc2Cc2ccc(F)cc2)c(Cl)c1Cl)C(F)(F)F | 80% | 134% | – | –
